According to patent US20180021395A1, “EUCOMMIA LEAF EXTRACT, AND PREPARATION METHOD AND USE THEREOF” (SICHUAN JIUZHANG BIOLOGICAL SCIENCE AND TECHNOLOGY CO., LTD, priority 2015, published 2018):
Marks after values point to notes of the source that are not given here.

Assays:
[1] = system: psoriasis vulgaris model (transplanted psoriasis skin damage); assay: Psoriasis vulgaris model: SCID mice transplanted with patient psoriasis skin, HE histology and Baker scores; assay type: in vivo
Experimental: Female and male SCID mice were separately fed for one week, and allowed to adapt growing environment. Patients with psoriasis vulgaris or plaque-type psoriasis were chosen (indentifying the informed consent). […] Aseptic packaging was wrapped up with bandage macerated with normal saline, to prepare for transplantation. According to the body weight of SCID mice, 3% chloral hydrate (0.1 ml/10 g) was administrated, followed by skin preparation and unhair. […] After transplantation of skin, mice were raised in separated cages, and all processes were finished within 2 h. After 10 days, skin damage arounding was injected with PBMC (1×10^6/mouse) provided by transplantation supplier and treated with ConA. After two weeks, exterior packing was dismantled to observe the survival situation of skin and confirm the success of model establishment, and the successful model was used for further experiment. […] The administration was kept for 10 days. […] Skin damage was trimmed into suitable size, dehydrated, embedded, sliced, and stained with HE. […] Baker scores were calculated, and the difference in data of each group was compared. All values were processed using SPSS13.0 software, and the experimental results were presented as x±s. p<0.05 was considered to be a statistical difference. The mean of multi-samples was compared using analysis of variance.

cAMP and cGMP in serum = assay: Psoriasis vulgaris model: content and ratio of cAMP and cGMP in serum (ELISA); assay type: in vivo, SCID mice; details: x ± s, n = 10
Text: (§1) Female and male SCID mice were separately fed for one week, and allowed to adapt growing environment. Patients with psoriasis vulgaris or plaque-type psoriasis were chosen (indentifying the informed consent). Dermatochalasis containing 2 cm×2 cm psoriasis skin damage in patients was chosen to make a fusiform incision, and full-thickness of skin was cut and trimmed into free skin graft with a suitable thickness of 0.6 cm×0.6 cm. Aseptic packaging was wrapped up with bandage macerated with normal saline, to prepare for transplantation. According to the body weight of SCID mice, 3% chloral hydrate (0.1 ml/10 g) was administrated, followed by skin preparation and unhair. Epidermis was scissored and cut into fascia layer, and the trimmed skin graft was sutured using 3-0 silk thread and subjected to pressure dressing with cotton ball soaking with normal saline. After transplantation of skin, mice were raised in separated cages, and all processes were finished within 2 h. After 10 days, skin damage arounding was injected with PBMC (1×10^6/mouse) provided by transplantation supplier and treated with ConA. After two weeks, exterior packing was dismantled to observe the survival situation of skin and confirm the success of model establishment, and the successful model was used for further experiment.
The administration was kept for 10 days.
Before sacrificing guinea pigs, blood was taken and centrifuged under 2000r/rain, to collect serum. Using ELISA kit, optical density was detected as instructions in kit. The results were calculated by standard curve, and the ratio of cAMP/cGMP was calculated according to the results.
All values were processed using SPSS13.0 software, and the experimental results were presented as x±s. p<0.05 was considered to be a statistical difference. The mean of multi-samples was compared using analysis of variance.

VEGF = assay: Psoriasis vulgaris model: VEGF levels in serum; assay type: in vivo, SCID mice; details: after 10 days administration, x ± s, n = 10
Text: as §1, with “After two weeks, exterior packing was dismantled to observe the survival situation of skin and confirm the success of model establishment, and the successful model was used for further experiment.” left out
Before sacrificing guinea pigs, blood was taken and centrifuged under 2000r/rain, to collect serum. Using ELISA kit, optical density was detected as instructions in kit. The results were calculated by standard curve, and the ratio of cAMP/cGMP was calculated according to the results. […]

[2] = transplanted skin, HE stain, after 10 days administration
[3] = serum, ELISA, after 10 days administration

With `COc1cc(C)c(/C=C/C(C)=C/C=C/C(C)=C/C(=O)O)c(C)c1C` [Positive control, Acitretin A capsule] the Number of acanthocytes ([1]; 10 days administration, x ± s, n = 10) was 27.09 ± 8.83^a, the “Monocytes (count)” value ([1]; surrounding superficial layer blood vessels in dermis, 200 times visual fields, 10 days administration, x ± s, n = 10) was 66.40 ± 9.28^a and the Baker scores ([1]; test drugs 100 mg/kg intragastric once a day, positive control 2.25 mg/kg twice a day, 10 days, x ± s, n = 10) was 6.39 ± 1.53^a. The “degree of parakeratosis under light microscope” value [1, 2] was “middle degree of parakeratosis”, the “epidermis wooden stick-like hyperplasia” value [1, 2] was “middle degree of wooden stick-like hyperplasia” and the “monocyte infiltration surrounding blood vessels in dermis” value [1, 2] was “small amounts of monocyte infiltration”. For the same molecule, the punctiform granular layer [1, 2] was “local visible punctiform granular layer and hyperkeratinization”, the spinous layer thickness [1, 2] was 24-32 layers and the cAMP/cGMP (cAMP and cGMP in serum; ratio of serum contents) was 3.02 ± 0.08^ab. For the same molecule, the cAMP in serum (cAMP and cGMP in serum; [3]) was 10.22 ± 0.73^ab pmol/m1, the cGMP in serum (cAMP and cGMP in serum; [3]) was 3.38 ± 0.20^ab pmol/m1 and the “VEGF levels in serum” value (VEGF) was 93.40 ± 6.54^ab pg/m1.
